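The concentration for 50% growth inhibition is given as GI50. At the TGI there is no net growth.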
Key:
Assay in all cases: NCI anticancer screen, dose series, 384-well format
786-0 renal = test system: 786-0 renal
A498 renal = test system: A498 renal
A549 NSCLC = test system: A549 NSCLC
ACHN renal = test system: ACHN renal
BT-549 breast = test system: BT-549 breast
CAKI-1 renal = test system: CAKI-1 renal
CCRF-CEM leukemia = test system: CCRF-CEM leukemia
COLO 205 colon = test system: COLO 205 colon
DU-145 prostate = test system: DU-145 prostate
EKVX NSCLC = test system: EKVX NSCLC
HCC-2998 colon = test system: HCC-2998 colon
HCT-15 colon = test system: HCT-15 colon
HL-60(TB) leukemia = test system: HL-60(TB) leukemia
HOP-62 NSCLC = test system: HOP-62 NSCLC
HOP-92 NSCLC = test system: HOP-92 NSCLC
HS 578T breast = test system: HS 578T breast
HT29 colon = test system: HT29 colon
IGROV1 ovarian = test system: IGROV1 ovarian
KM12 colon = test system: KM12 colon
M14 melanoma = test system: M14 melanoma
MALME-3M melanoma = test system: MALME-3M melanoma
MCF7 breast = test system: MCF7 breast
MDA-MB-231 breast = test system: MDA-MB-231 breast
MDA-MB-435 melanoma = test system: MDA-MB-435 melanoma
MDA-MB-468 breast = test system: MDA-MB-468 breast
MOLT-4 leukemia = test system: MOLT-4 leukemia
NCI-H226 lung = test system: NCI-H226 lung
NCI-H23 lung = test system: NCI-H23 lung
NCI-H322M lung = test system: NCI-H322M lung
NCI-H460 NSCLC = test system: NCI-H460 NSCLC
NCI-H522 lung = test system: NCI-H522 lung
NCI/ADR-RES ovarian = test system: NCI/ADR-RES ovarian
OVCAR-3 ovarian = test system: OVCAR-3 ovarian
OVCAR-4 ovarian = test system: OVCAR-4 ovarian
OVCAR-5 ovarian = test system: OVCAR-5 ovarian
OVCAR-8 ovarian = test system: OVCAR-8 ovarian
PC-3 prostate = test system: PC-3 prostate
RPMI-8226 leukemia = test system: RPMI-8226 leukemia
RXF 393 renal = test system: RXF 393 renal
SF-268 CNS = test system: SF-268 CNS
SF-295 CNS = test system: SF-295 CNS
SF-539 CNS = test system: SF-539 CNS
SK-MEL-2 melanoma = test system: SK-MEL-2 melanoma
SK-MEL-28 melanoma = test system: SK-MEL-28 melanoma
SK-MEL-5 melanoma = test system: SK-MEL-5 melanoma
SK-OV-3 ovarian = test system: SK-OV-3 ovarian
SN12C renal = test system: SN12C renal
SNB-19 CNS = test system: SNB-19 CNS
SNB-75 CNS = test system: SNB-75 CNS
SR leukemia = test system: SR leukemia
SW-620 colon = test system: SW-620 colon
T-47D breast = test system: T-47D breast
TK-10 renal = test system: TK-10 renal
U251 glioblastoma = test system: U251 glioblastoma
UACC-257 melanoma = test system: UACC-257 melanoma
UACC-62 melanoma = test system: UACC-62 melanoma

O=c1ccn(C2OC(CO)C(O)C2F)c(=O)[nH]1 (configuration not stated)
GI50 (786-0 renal): > 100 µM | TGI (786-0 renal): > 100 µM | GI50 (A498 renal): > 100 µM | TGI (A498 renal): > 100 µM | GI50 (A549 NSCLC): > 100 µM | TGI (A549 NSCLC): > 100 µM | GI50 (ACHN renal): > 100 µM | TGI (ACHN renal): > 100 µM | GI50 (BT-549 breast): > 100 µM | TGI (BT-549 breast): > 100 µM | GI50 (CAKI-1 renal): > 100 µM | TGI (CAKI-1 renal): > 100 µM | GI50 (CCRF-CEM leukemia): 37.3 µM | TGI (CCRF-CEM leukemia): > 100 µM | GI50 (COLO 205 colon): > 100 µM | TGI (COLO 205 colon): > 100 µM | GI50 (DU-145 prostate): > 100 µM | TGI (DU-145 prostate): > 100 µM | GI50 (EKVX NSCLC): > 100 µM | TGI (EKVX NSCLC): > 100 µM | GI50 (HCC-2998 colon): > 100 µM | TGI (HCC-2998 colon): > 100 µM | GI50 (HCT-15 colon): > 100 µM | TGI (HCT-15 colon): > 100 µM | GI50 (HL-60(TB) leukemia): > 100 µM | TGI (HL-60(TB) leukemia): > 100 µM | GI50 (HOP-62 NSCLC): > 100 µM | TGI (HOP-62 NSCLC): > 100 µM | GI50 (HOP-92 NSCLC): > 100 µM | TGI (HOP-92 NSCLC): > 100 µM | GI50 (HS 578T breast): > 100 µM | TGI (HS 578T breast): > 100 µM | GI50 (HT29 colon): > 100 µM | TGI (HT29 colon): > 100 µM | GI50 (IGROV1 ovarian): > 100 µM | TGI (IGROV1 ovarian): > 100 µM | GI50 (KM12 colon): > 100 µM | TGI (KM12 colon): > 100 µM | GI50 (M14 melanoma): > 100 µM | TGI (M14 melanoma): > 100 µM | GI50 (MALME-3M melanoma): > 100 µM | TGI (MALME-3M melanoma): > 100 µM | GI50 (MCF7 breast): > 100 µM | TGI (MCF7 breast): > 100 µM | GI50 (MDA-MB-231 breast): > 100 µM | TGI (MDA-MB-231 breast): > 100 µM | GI50 (MDA-MB-435 melanoma): > 100 µM | TGI (MDA-MB-435 melanoma): > 100 µM | GI50 (MDA-MB-468 breast): > 100 µM | TGI (MDA-MB-468 breast): > 100 µM | GI50 (MOLT-4 leukemia): 53.1 µM | TGI (MOLT-4 leukemia): > 100 µM | GI50 (NCI-H226 lung): > 100 µM | TGI (NCI-H226 lung): > 100 µM | GI50 (NCI-H23 lung): > 100 µM | TGI (NCI-H23 lung): > 100 µM | GI50 (NCI-H322M lung): > 100 µM | TGI (NCI-H322M lung): > 100 µM | GI50 (NCI-H460 NSCLC): > 100 µM | TGI (NCI-H460 NSCLC): > 100 µM | GI50 (NCI-H522 lung): > 100 µM | TGI (NCI-H522 lung): > 100 µM | GI50 (NCI/ADR-RES ovarian): > 100 µM | TGI (NCI/ADR-RES ovarian): > 100 µM | GI50 (OVCAR-3 ovarian): > 100 µM | TGI (OVCAR-3 ovarian): > 100 µM | GI50 (OVCAR-4 ovarian): > 100 µM | TGI (OVCAR-4 ovarian): > 100 µM | GI50 (OVCAR-5 ovarian): > 100 µM | TGI (OVCAR-5 ovarian): > 100 µM | GI50 (OVCAR-8 ovarian): > 100 µM | TGI (OVCAR-8 ovarian): > 100 µM | GI50 (PC-3 prostate): > 100 µM | TGI (PC-3 prostate): > 100 µM | GI50 (RPMI-8226 leukemia): > 100 µM | TGI (RPMI-8226 leukemia): > 100 µM | GI50 (RXF 393 renal): > 100 µM | TGI (RXF 393 renal): > 100 µM | GI50 (SF-268 CNS): > 100 µM | TGI (SF-268 CNS): > 100 µM | GI50 (SF-295 CNS): > 100 µM | TGI (SF-295 CNS): > 100 µM | GI50 (SF-539 CNS): > 100 µM | TGI (SF-539 CNS): > 100 µM | GI50 (SK-MEL-2 melanoma): > 100 µM | TGI (SK-MEL-2 melanoma): > 100 µM | GI50 (SK-MEL-28 melanoma): > 100 µM | TGI (SK-MEL-28 melanoma): > 100 µM | GI50 (SK-MEL-5 melanoma): > 100 µM | TGI (SK-MEL-5 melanoma): > 100 µM | GI50 (SK-OV-3 ovarian): > 100 µM | TGI (SK-OV-3 ovarian): > 100 µM | GI50 (SN12C renal): > 100 µM | TGI (SN12C renal): > 100 µM | GI50 (SNB-19 CNS): > 100 µM | TGI (SNB-19 CNS): > 100 µM | GI50 (SNB-75 CNS): > 100 µM | TGI (SNB-75 CNS): > 100 µM | GI50 (SR leukemia): > 100 µM | TGI (SR leukemia): > 100 µM | GI50 (SW-620 colon): > 100 µM | TGI (SW-620 colon): > 100 µM | GI50 (T-47D breast): > 100 µM | TGI (T-47D breast): > 100 µM | GI50 (TK-10 renal): > 100 µM | TGI (TK-10 renal): > 100 µM | GI50 (U251 glioblastoma): > 100 µM | TGI (U251 glioblastoma): > 100 µM | GI50 (UACC-257 melanoma): > 100 µM | TGI (UACC-257 melanoma): > 100 µM | GI50 (UACC-62 melanoma): > 100 µM | TGI (UACC-62 melanoma): > 100 µM
